This is an account of results in US20040116330A1, “Preventive/therapeutic method for cancer” (priority 2001, published 2004).

As to `OCCc1nccn1CCCc1ccc(OCc2coc(/C=C/c3ccc(F)cc3F)n2)cc1` [Compound B20, 2-[1-[3-[4-[[2-[(E)-2-(2,4-difluorophenyl)ethenyl]-1,3-oxazol-4-yl]methoxy]phenyl]propyl]-1H-imidazol-2-yl]-1-ethanol], the melting point lay in the range of 94 to 96 °C.
The value for `FC(F)(F)c1ccc(/C=C/c2nc(COc3ccc(CCCn4ccnn4)cc3)co2)cc1` [Compound B5, 1-(3-{4-[(2-((E)-2-[4-(trifluoromethyl)phenyl]ethenyl)-1,3-oxazol-4-yl)methoxy]phenyl)propyl)-1H-1,2,3-triazole] was 157 to 158 °C; that for `Cc1ccccc1/C=C/c1nc(COc2ccc(CCCCn3ccnc3CCO)cc2)co1` [Compound B12, 2-[1-[4-[4-[[2-[(E)-2-(2-methylphenyl)ethenyl]-1,3-oxazol-4-yl]methoxy]phenyl]butyl]-1H-imidazol-2-yl]-1-ethanol] was 91 to 93 °C; that for `FC(F)(F)c1ccc(/C=C/c2nc(COc3cccc(CCCn4ccnn4)c3)co2)cc1` [Compound B6, 1-(3-{3-[(2-((E)-2-[4-(trifluoromethyl)phenyl]ethenyl}-1,3-oxazol-4-yl)methoxy]phenyl}propyl)-1H-1,2,3-triazole] was 115 to 116 °C.
The value for `OCCc1nccn1CCCCc1ccc(OCc2coc(/C=C/c3ccc(F)cc3)n2)cc1` [Compound B14, 2-(1-{4-[4-({2-[(E)-2-(4-fluorophenyl)ethenyl]-1,3-oxazol-4-yl}methoxy)phenyl]butyl)-1H-imidazol-2-yl)-1-ethanol] was 130 to 132 °C; that for `Fc1ccc(/C=C/c2nc(COc3ccc(CCCCn4ccnn4)cc3)co2)c(F)c1` [Compound B7, 1-{4-[4-({2-[(E)-2-(2,4-difluorophenyl)ethenyl]-1,3-oxazol-4-yl}methoxy)phenyl]butyl}-1H-1,2,3-triazole] was 115 to 117 °C.
The value for `Fc1ccc(/C=C/c2nc(COc3cccc(CCCn4ccnn4)c3)co2)cc1` [Compound B3, 1-{3-[3-({2-[(E)-2-(4-fluorophenyl)ethenyl]-1,3-oxazol-4-yl}methoxy)phenyl]propyl}-1H-1,2,3-triazole] was 105 to 106 °C.
Regarding `Cc1cccc(/C=C/c2nc(COc3ccc(CCCCn4ccnc4CCO)cc3)co2)c1` [Compound B11, 2-[1-[4-[4-[[2-[(E)-2-(3-methylphenyl)ethenyl]-1,3-oxazol-4-yl]methoxy]phenyl]butyl]-1H-imidazol-2-yl]-1-ethanol], the melting point lay in the range of 109 to 111 °C.
The value for `Fc1ccc(/C=C/c2nc(COc3ccc(CCCCn4ccnn4)cc3)co2)cc1` [Compound B2, 1-{4-[4-({2-[(E)-2-(4-fluorophenyl)ethenyl]-1,3-oxazol-4-yl}methoxy)phenyl]butyl}-1H-1,2,3-triazole] was 124 to 125 °C; that for `CCc1ccc(/C=C/c2nc(COc3ccc(CCCCn4ccnc4CCO)cc3)co2)cc1` [Compound B13, 2-[1-[4-[4-[[2-[(E)-2-(4-ethylphenyl)ethenyl]-1,3-oxazol-4-yl]methoxy]phenyl]butyl]-1H-imidazol-2-yl]-1-ethanol] was 94 to 95 °C; that for `OCC(O)Cc1nccn1CCCc1cccc(OCc2coc(/C=C/c3ccc(C(F)(F)F)cc3)n2)c1` (stereo not shown) [Compound B25, 3-[1-(3-{3-[(2-{(E)-2-[4-(trifluoromethyl)phenyl]ethenyl}-1,3-oxazol-4-yl)methoxy]phenyl]propyl)-1H-imidazol-2-yl]-1,2-propanediol] was 102 to 104 °C.
For the compound `OCCc1nccn1CCCCc1ccc(OCc2coc(/C=C/c3ccc(F)cc3F)n2)cc1` [Compound B19, 2-[1-[4-[4-[[2-[(E)-2-(2,4-difluorophenyl)ethenyl]-1,3-oxazol-4-yl]methoxy]phenyl]butyl]-1H-imidazol-2-yl]-1-ethanol], the melting point was in the range of 93 to 95 °C.
The compound `Fc1ccc(/C=C/c2nc(COc3cccc(CCCn4ccnn4)c3)co2)c(F)c1` [Compound B8, 1-{3-[3-({2-[(E)-2-(2,4-difluorophenyl)ethenyl]-1,3-oxazol-4-yl}methoxy)phenyl]propyl}-1H-1,2,3-triazole] registered a melting point of 89 to 90 °C.
`Cc1ccc(/C=C/c2nc(COc3ccc(CCCCn4ccnc4CCO)cc3)co2)cc1` [Compound B10, 2-[1-[4-[4-[[2-[(E)-2-(4-methylphenyl)ethenyl]-1,3-oxazol-4-yl]methoxy]phenyl]butyl]-1H-imidazol-2-yl]-1-ethanol]: the melting point lay in the range of 108 to 109 °C.
The value for `OCC(O)Cc1nccn1CCCCc1ccc(OCc2coc(/C=C/c3ccc(C(F)(F)F)cc3)n2)cc1` (stereo not shown) [Compound B24, 3-[1-(4-(4-[(2-{(E)-2-[4-(trifluoromethyl)phenyl]ethenyl)-1,3-oxazol-4-yl)methoxy]phenyl}butyl)-1H-imidazol-2-yl]-1,2-propanediol] was 142 to 143 °C; that for `OCC(O)Cc1nccn1CCCCc1ccc(OCc2coc(/C=C/c3ccc(F)cc3F)n2)cc1` (stereo not shown) [Compound B26, 3-(1-{4-[4-({2-[(E)-2-(2,4-difluorophenyl)ethenyl]-1,3-oxazol-4-yl)methoxy)phenyl]butyl}-1H-imidazol-2-yl)-1,2-propanediol] was 126 to 128 °C.
To `OCC(O)Cc1nccn1CCCCc1ccc(OCc2coc(/C=C/c3ccc(F)cc3)n2)cc1` (stereo not shown) [Compound B23, 3-(1-{4-[4-({2-[(E)-2-(4-fluorophenyl)ethenyl]-1,3-oxazol-4-yl}methoxy)phenyl]butyl}-1H-imidazol-2-yl)-1,2-propanediol] belongs 114 to 116 °C; to `Cc1cccc(/C=C/c2nc(COc3ccc(CCCCn4ccnc4CC(O)CO)cc3)co2)c1` (stereo not shown) [Compound B22, 3-(1-{4-[4-({2-[(E)-2-(3-methylphenyl)ethenyl]-1,3-oxazol-4-yl}methoxy)phenyl]butyl}-1H-imidazol-2-yl)-1,2-propanediol], 102 to 104 °C; to `OCCc1nccn1CCCCc1ccc(OCc2coc(/C=C/c3ccc(Br)cc3)n2)cc1` [Compound B16, 2-[1-[4-[4-[[2-[(E)-2-(4-bromophenyl)ethenyl]-1,3-oxazol-4-yl]methoxy]phenyl]butyl]-1H-imidazol-2-yl]-1-ethanol], 149 to 150 °C.
To `OCC(O)Cc1nccn1CCCCc1ccc(OCc2coc(/C=C/c3c(F)cccc3F)n2)cc1` (stereo not shown) [Compound B28, 3-[1-[4-[4-[[2-[(E)-2-(2,6-difluorophenyl)ethenyl]-1,3-oxazol-4-yl]methoxy]phenyl]butyl]-1H-imidazol-2-yl]-1,2-propanediol] belongs 123 to 125 °C; to `OCCc1nccn1CCCCc1ccc(OCc2coc(/C=C/c3ccc(Cl)cc3)n2)cc1` [Compound B15, 2-[1-[4-[4-[[2-[(E)-2-(4-chlorophenyl)ethenyl]-1,3-oxazol-4-yl]methoxy]phenyl]butyl]-1H-imidazol-2-yl]-1-ethanol], 127 to 128 °C.
Compound `OCC(O)Cc1nccn1CCCc1cccc(OCc2coc(/C=C/c3ccc(F)cc3F)n2)c1` (stereo not shown) [Compound B27, 3-(1-{3-[3-({2-[(E)-2-(2,4-difluorophenyl)ethenyl]-1,3-oxazol-4-yl}methoxy)phenyl]propyl}-1H-imidazol-2-yl)-1,2-propanediol] returned a melting point of 92 to 94 °C.
